Measurements as given in US8852654B2 (priority 2011, dated 2014).

What was measured:
[1] = Double blind randomized clinical assay in women with low urinary tract infection treated with nitrofurantoin; format: in vivo, human
Description: Patients were ambulatory in the Urology Polyclinical of the Clinical Hospital of the University of Chile (HCUCH). Those that fulfilled the inclusion and exclusion criteria signed an informed consent to participate in the study. Patients were distributed randomly in the two following groups:
During the treatment, under medical and nursery checkup registers of adverse reactions, hemogram, biochemical profile, urocultive and determination of plasma antioxidant capacity were made.

[2] = cited from earlier work

O=C1CN(/N=C/c2ccc([N+](=O)[O-])o2)C(=O)N1 [nitrofurantoin, N-(5-nitro-2-furfuriliden)-1-aminohidantoin]
Biochemical profile values compared with reference values ([1]; human, in vivo): not statistically different from reference values | Hemogram values compared with reference values ([1]; human, in vivo): not statistically different from reference values | Patients passed away because of the gastrointestinal adverse reactions ([1]; received only nitrofurantoin, 100 mg every 12 hours, 15 patients per group): 2 patients | Absorption ([2]; after oral administration): almost completely absorbed | Maximum plasma concentrations ([2]; oral): about 1 mg/L | Plasma half-life ([2]; oral, prolonged in renal insufficiency): 20 to 30 min
